Measured values taken from patent publication US20210393855A1, “NEW HYDROGELS HAVING A SILYLATED STRUCTURE, AND METHOD FOR OBTAINING SAME” (Universite de Montpellier, priority 2015, published 2021).

Assay: Fluorescein release from hydrogels in phosphate buffer, monitored by HPLC
Type: physicochemical
Conditions: covalently grafted in PEG hydrogel, plateau after 72 hours
Excerpt: FIG. 2: this figure concerns tests to quantify the release of fluorescein from various hydrogels according to the invention. The hydrogels grafted with fluorescein by covalent bond show much lower release rates than the hydrogel containing fluorescein simply enclosed with no covalent bond.
In order to show the covalent incorporation of a (bio)molecule into the gel and the absence of release over time of the grafted molecules, fluorescein derivatives were selected to be chemically linked to the hydrogels in accordance with the present invention (see FIG. 2 for the exact formulae). Thus, if there were to be a release of the grafted molecules, the use of fluorescein would make it possible to easily detect it.
Fluorescein isothiocyanate (FITC) was used to prepare two types of fluorescein derivatives giving covalent bonds (triethoxysilane and dimethylhydroxysilane), as well as a non-silylated molecule used as control. Each fluorescein derivative was dissolved at a concentration of 5.2 mM in a solution of bi-silylated hybrid PEG, itself at a concentration of 10% by mass relative to the mass of DPBS used as solvent. Sodium fluoride was added, and the solutions were homogenized. Fluorescent hybrid hydrogels were obtained at 37° C. in 30 minutes. The various hydrogels were placed in phosphate buffer (10 mL) and fluorescein release was monitored by HPLC. […]

SMILES: C[Si](C)(O)CCCNC(=O)NCCCNC(=S)Nc1ccc(-c2c3ccc(=O)cc-3oc3cc(O)ccc23)c(C(=O)O)c1 [dimethythydroxyfluorescein, Hydroxydimethylsilyl Fluorescein]
- maximum release (relative to the total amount of fluorescein introduced): 20%
